In ChEMBL document CHEMBL1687815, “In vivo selection of a missense mutation in adeR and conversion of the novel blaOXA-164 gene into blaOXA-58 in carbapenem-resistant Acinetobacter baumannii isolates from a hospitalized patient” (2010):
Values after ≈ are worked out from the molar mass of the structure shown.

What was measured:
[1] = system: Acinetobacter baumannii; assay: Antimicrobial activity against Acinetobacter baumannii isolate A expressing beta-lactamase OXA-164 isolated from tracheal secretion of patient by vitek 2 system
[2] = system: Acinetobacter baumannii; assay: Antimicrobial activity against Acinetobacter baumannii isolate E expressing beta-lactamase OXA-164 isolated from tracheal secretion of patient by Etest
[3] = system: Acinetobacter baumannii; assay: Antimicrobial activity against Acinetobacter baumannii isolate C expressing beta-lactamase OXA-164 isolated from tracheal secretion of patient by Etest
[4] = system: Acinetobacter baumannii; assay: Antimicrobial activity against Acinetobacter baumannii isolate C expressing beta-lactamase OXA-164 isolated from tracheal secretion of patient by vitek 2 system
[5] = system: Acinetobacter baumannii; assay: Antimicrobial activity against Acinetobacter baumannii ATCC 17978 harboring beta-lactamase OXA-164 by Etest; assay type: functional
[6] = system: Acinetobacter baumannii; assay: Antimicrobial activity against Acinetobacter baumannii isolate D expressing beta-lactamase OXA-164 isolated from tracheal secretion of patient by Etest
[7] = system: Acinetobacter baumannii; assay: Antimicrobial activity against Acinetobacter baumannii ATCC 17978 harboring beta-lactamase OXA-58 by Etest; assay type: functional
[8] = system: Acinetobacter baumannii; assay: Antimicrobial activity against Acinetobacter baumannii ATCC 19606 harboring beta-lactamase OXA-58 by Etest; assay type: functional; conditions: ATCC 19606 = CIP 70.34 = JCM 6841
[9] = system: Acinetobacter baumannii; assay: Antimicrobial activity against Acinetobacter baumannii ATCC 17978 harboring plasmid WH1266 by Etest; assay type: functional
[10] = system: Acinetobacter baumannii; assay: Antimicrobial activity against Acinetobacter baumannii isolate B expressing beta-lactamase OXA-164 isolated from tracheal secretion of patient by Etest
[11] = system: Acinetobacter baumannii; assay: Antimicrobial activity against Acinetobacter baumannii isolate E expressing beta-lactamase OXA-164 isolated from tracheal secretion of patient by vitek 2 system
[12] = system: Acinetobacter baumannii; assay: Antimicrobial activity against Acinetobacter baumannii isolate I expressing beta-lactamase OXA-58 isolated from tracheal secretion of patient by vitek 2 system
[13] = system: Acinetobacter baumannii; assay: Antimicrobial activity against Acinetobacter baumannii isolate J expressing beta-lactamase OXA-58 isolated from bedsore by Etest
[14] = system: Acinetobacter baumannii; assay: Antimicrobial activity against Acinetobacter baumannii isolate F expressing beta-lactamase OXA-164 isolated from tracheostoma of patient by vitek 2 system
[15] = system: Acinetobacter baumannii; assay: Antimicrobial activity against Acinetobacter baumannii isolate H expressing beta-lactamase OXA-58 isolated from tracheal secretion of patient by Etest
[16] = system: Acinetobacter baumannii; assay: Antimicrobial activity against Acinetobacter baumannii isolate G expressing beta-lactamase OXA-58 isolated from tracheal secretion of patient by Etest
[17] = system: Acinetobacter baumannii; assay: Antimicrobial activity against Acinetobacter baumannii isolate G expressing beta-lactamase OXA-58 isolated from tracheal secretion of patient by vitek 2 system
[18] = system: Escherichia coli; assay: Antimicrobial activity against Escherichia coli NEB 5-alpha harboring beta-lactamase OXA-164 by Etest; assay type: functional
[19] = system: Acinetobacter baumannii; assay: Antimicrobial activity against Acinetobacter baumannii isolate M expressing beta-lactamase OXA-58 isolated from tracheal secretion of patient by vitek 2 system
[20] = system: Acinetobacter baumannii; assay: Antimicrobial activity against Acinetobacter baumannii isolate K expressing beta-lactamase OXA-58 isolated from blood culture of patient by vitek 2 system
[21] = system: Acinetobacter baumannii; assay: Antimicrobial activity against Acinetobacter baumannii isolate F expressing beta-lactamase OXA-164 isolated from tracheostoma of patient by Etest
[22] = system: Acinetobacter baumannii; assay: Antimicrobial activity against Acinetobacter baumannii ATCC 19606 harboring plasmid WH1266 by Etest; assay type: functional; conditions: ATCC 19606 = CIP 70.34 = JCM 6841
[23] = system: Acinetobacter baumannii; assay: Antimicrobial activity against Acinetobacter baumannii isolate M expressing beta-lactamase OXA-58 isolated from tracheal secretion of patient by Etest
[24] = system: Escherichia coli; assay: Antimicrobial activity against Escherichia coli NEB 5-alpha harboring beta-lactamase OXA-58 by Etest; assay type: functional
[25] = system: Acinetobacter baumannii; assay: Antimicrobial activity against Acinetobacter baumannii isolate B expressing beta-lactamase OXA-164 isolated from tracheal secretion of patient by vitek 2 system
[26] = system: Acinetobacter baumannii; assay: Antimicrobial activity against Acinetobacter baumannii isolate K expressing beta-lactamase OXA-58 isolated from blood culture of patient by Etest
[27] = system: Acinetobacter baumannii; assay: Antimicrobial activity against Acinetobacter baumannii by vitek 2 system
[28] = system: Acinetobacter baumannii; assay: Antimicrobial activity against Acinetobacter baumannii isolate L expressing beta-lactamase OXA-58 isolated from tracheal secretion of patient by vitek 2 system
[29] = system: Escherichia coli; assay: Antimicrobial activity against Escherichia coli NEB 5-alpha harboring plasmid WH1266 by Etest; assay type: functional
[30] = system: Acinetobacter baumannii; assay: Antimicrobial activity against Acinetobacter baumannii isolate A expressing beta-lactamase OXA-164 isolated from tracheal secretion of patient by Etest
[31] = system: Acinetobacter baumannii; assay: Antimicrobial activity against Acinetobacter baumannii isolate I expressing beta-lactamase OXA-58 isolated from tracheal secretion of patient by Etest
[32] = system: Acinetobacter baumannii; assay: Antimicrobial activity against Acinetobacter baumannii isolate J expressing beta-lactamase OXA-58 isolated from bedsore by vitek 2 system
[33] = system: Acinetobacter baumannii; assay: Antimicrobial activity against Acinetobacter baumannii ATCC 19606 harboring beta-lactamase OXA-164 by Etest; assay type: functional; conditions: ATCC 19606 = CIP 70.34 = JCM 6841
[34] = system: Acinetobacter baumannii; assay: Antimicrobial activity against Acinetobacter baumannii isolate L expressing beta-lactamase OXA-58 isolated from tracheal secretion of patient by Etest
[35] = system: Acinetobacter baumannii; assay: Antimicrobial activity against Acinetobacter baumannii isolate H expressing beta-lactamase OXA-58 isolated from tracheal secretion of patient by vitek 2 system
[36] = system: Acinetobacter baumannii; assay: Antimicrobial activity against Acinetobacter baumannii isolate D expressing beta-lactamase OXA-164 isolated from tracheal secretion of patient by vitek 2 system

SMILES: C[C@@H](O)[C@H]1C(=O)N2C(C(=O)O)=C(SCCNC=N)C[C@H]12 [IMIPENEM ANHYDROUS]
- MIC [1]: 8 µg/mL (≈ 26.7 µM)
- MIC [2]: 32 µg/mL (≈ 107 µM)
- MIC [3]: 32 µg/mL (≈ 107 µM)
- MIC [4]: ≥ 16 µg/mL
- MIC [5]: > 32 µg/mL
- MIC [6]: 32 µg/mL (≈ 107 µM)
- MIC [7]: > 32 µg/mL
- MIC [8]: > 32 µg/mL
- MIC [9]: 0.25 µg/mL (≈ 0.835 µM)
- MIC [10]: 32 µg/mL (≈ 107 µM)
- MIC [11]: ≥ 16 µg/mL
- MIC [12]: ≥ 16 µg/mL
- MIC [13]: ≥ 64 µg/mL
- MIC [14]: ≥ 16 µg/mL
- MIC [15]: ≥ 64 µg/mL
- MIC [16]: ≥ 64 µg/mL
- MIC [17]: ≥ 16 µg/mL
- MIC [18]: 0.25 µg/mL (≈ 0.835 µM)
- MIC [19]: ≥ 16 µg/mL
- MIC [20]: ≥ 16 µg/mL
- MIC [21]: 32 µg/mL (≈ 107 µM)
- MIC [22]: 0.125 µg/mL (≈ 0.418 µM)
- MIC [23]: ≥ 64 µg/mL
- MIC [24]: 0.5 µg/mL (≈ 1.67 µM)
- MIC [25]: ≥ 16 µg/mL
- MIC [26]: ≥ 64 µg/mL
- MIC [27]: 8 µg/mL (≈ 26.7 µM)
- MIC [28]: ≥ 16 µg/mL
- MIC [29]: 0.19 µg/mL (≈ 0.635 µM)
- MIC [30]: 32 µg/mL (≈ 107 µM)
- MIC [31]: ≥ 64 µg/mL
- MIC [32]: ≥ 16 µg/mL
- MIC [33]: > 32 µg/mL
- MIC [34]: ≥ 64 µg/mL
- MIC [35]: ≥ 16 µg/mL
- MIC [36]: ≥ 16 µg/mL
